In patent publication EP0017543B1, “Benzothiazole derivatives, process for their preparation and their therapeutical uses” (Albert ROLLAND S.A. Société dite, priority 1979, dated 1980):

Legend:
[1] = test system: agrégation plaquettaire provoquée in vitro par l'ADP; assay: ADP-induced platelet aggregation in vitro in platelet-rich rat plasma; assay type: cell-based; conditions: plasma de rat enrichi en plaquettes
[2] = test system: torsions à la phénylbenzoquinone chez la souris; assay: Phenylbenzoquinone writhing test (analgesic activity); assay type: in vivo; conditions: dose de 12,5 mg/kg, 24 heures après son administration
Protocol: L'activité analgésique des composés de formule 1 a été mise en évidence dans le test des torsions à la phénylbenzoquinone chez la souris. Ainsi, l'acide de formule 1 (racémique) possède dans ce test une DE50 de 3 à 6 mg/kg P.O. Cette activité analgésique est prolongée dans le temps, une dose de 12,5 mg/kg de ce composé entraînant encore une analgésie de 42%, 24 heures après son administration.

Solubility in water = assay type: physicochemical
Protocol: Le sel de pyrrolidine de l'acide (phényl-2 benzothiazolyl-6)-2 propionique est préparé par action d'I g d'amine sur 4 g d'acide en solution dans le méthanol. Il fond à 142°C.

[3] = test system: biosynthèse des prostaglandines; assay: Protection against arachidonic acid toxicity (lethal dose) in mice; assay type: in vivo, souris

In the case of `CC(C(=O)O)c1ccc2nc(-c3ccccc3)sc2c1` (racemic), the “concentration active par rapport à l'acide acétyl salicylique” value [1] is reported as “actif à une concentration dix fois plus faible que l'acide acétyl salicylique”.
`CC(C(=O)O)c1ccc2nc(-c3ccccc3)sc2c1` (racemic) [Exemple 1, acide (phényl-2 benzothiazolyl-6)-2 propionique] gave an analgésie [2] of 42%.
With `CC(C(=O)O)c1ccc2nc(-c3ccccc3)sc2c1` (racemic) [Exemple 3, (phényl-2 benzothiazolyl-6)-2 propionate de sodium] the “solubilité dans l'eau” value (Solubility in water) was “soluble dans l'eau” and the “activité contre la toxicité de l'acide arachidonique” value ([3]; voie intraveineuse, same doses (0,5 mg/kg)) was “actifs aux mêmes doses”.
For `CC(C(=O)O)c1ccc2nc(-c3ccccc3)sc2c1` (racemic) [Exemple 4, sel de pyrrolidine de l'acide (phényl-2 benzothiazolyl-6)-2 propionique], the “solubilité dans l'eau” value (Solubility in water) was “soluble dans l'eau”.
In the case of `CC(C(=O)O)c1ccc2nc(-c3ccccc3)sc2c1` (single isomer, unassigned) [Exemple 8a, acide (phényl-2 benzothiazolyl-6)-2 propionique], the “activité contre la toxicité de l'acide arachidonique, comparison of enantiomers and racemate” value ([3]; route not stated for the comparison) is reported as “activité comparable à celle du racémique (exemple 1), et supérieure à celle de son homologue lévogyre”.
